In patent US9757477B2, “Imaging brown adipose tissue with curcumin derivatives” (The General Hospital Corporation, priority 2013, dated 2017):
Values joined by “and” are separate entries in the source; they are usually repeats but may differ in a detail not shown here. Equal entries are not always repeated. “Also recorded” adds a separate entry of the source.

Columns and labels:
inguinal sWAT = test: Monitoring browning of subcutaneous WAT after CL 316,243 treatment; type: in vivo, C57BL6 mice; conditions: CL 316,243 1.0 mg/kg i.p. for 12 days
Method: (§1) Two-month old C57BL6 mice (n=5) were i.p. injected CL 316,243 (100 uL, 1.0 mg/kg) for 12 days, and the control mice (n=5) were i.p. injected with saline. On the 13th day, both groups were imaged after i.v. injection of CRANAD-29. Images were acquired at 1-, 2-, 4-hours after the probe injection. After the last imaging session, inguinal sWAT were dissected after scarification of the mice, and the dissected sWAT tissue was subjected to qPCR for UCP-1 expression and H&E staining

UCP-1 = test: qPCR for UCP-1 expression in dissected sWAT; type: in vivo, C57BL6 mice; conditions: CL 316,243 1.0 mg/kg i.p. for 12 days
Method: as §1

interscapular BAT [1] = test: Top-down whole-organism NIR fluorescence screening of dyes (ROI1/ROI2 contrast); type: in vivo, nude mice; conditions: for visible contrast around the interscapular BAT area: in vivo NIR images; for Ratio No 1 (ROI1/ROI2 average fluorescence intensity) / Ratio No 2 (ROI1/ROI2 average fluorescence intensity) / Ratio No 3 (ROI1/ROI2 average fluorescence intensity) / Ratio AVERAGE (mean ratio ROI1/ROI2): nude mice, one hour post-injection; for Ratio No 1 (ROI1/ROI2 average fluorescence intensity) / Ratio No 2 (ROI1/ROI2 average fluorescence intensity) / Ratio No 3 (ROI1/ROI2 average fluorescence intensity): 10 μg/mouse i.v.; for Ratio No 1 (ROI1/ROI2 average fluorescence intensity): first excitation/emission filter pair; for Ratio No 2 (ROI1/ROI2 average fluorescence intensity): second excitation/emission filter pair; for Ratio No 3 (ROI1/ROI2 average fluorescence intensity): third excitation/emission filter pair; for Ratio AVERAGE (mean ratio ROI1/ROI2): i.v., mean of three filter pairs, hit threshold >1.10
Method: 38 fluorescent dyes from commercial resources and from the inventors' laboratory were screened. Dyes with excitation range of 550-745 nm, emission range of 600-840 nm, and with molecular weight of less than 700 Da (except Cy5.5) (representative dyes are listed in FIG. 1d and the full list is shown in Table 2). Their hydrophobicities were not determined. The library was screened by intravenous tail injection of compounds into nude mice (10μg/mouse). Each dye was imaged with three optimized excitation/emission filter-pairs, and images at one hour after i.v. injection were acquired.
Top-down whole organism screening was performed as follows. Nude mice (nu/nu COX7) were purchased from Massachusetts General Hospital and Balb/c mice were from Jackson Laboratory. All animal experimental procedures were approved by the Institutional Animal Care and Use Committee (IACUC) at Massachusetts General Hospital. Dye stock solutions were prepared in DMSO. The final injection solution (0.1 mg/ml) was freshly prepared in a mixed solution of 20% DMSO, 20% Cremophor EL and 60% saline. Nude mice (n=5) were injected with a 100 μL dye solution via tail vein. For each imaging session, mice were anesthetized with a mixture of oxygen and isoflurane for 5 minutes, and then positioned into the imaging chamber of IVIS® Spectrum in vivo pre-clinical imaging system. Images were acquired at one-hour post-injection using sequence imaging with three excitation/emission filter pairs for each dye.
Hits selection was performed as follows. Hits from cell- or protein-based screening are usually selected by setting certain threshold. In the case of the top-down imaging screening, two methods were used (threshold and visible contrast) to select hits. First, three images obtained with three excitation/emission pairs were selected for each dye. These ex/em pairs were selected from the closest excitation and emission wavelengths of the tested dyes. For instance, 605/660 nm, 605/680 nm, 640/680 nm were selected for image acquisition of Nile blue (625/660 nm). The quantification of contrast for each image was calculated as a ratio of two ROIs (region of interest). ROI1 reflected the average signal from interscapular BAT and ROI2 was the average signal of the area that included BAT and white adipose tissue (WAT) around the interscapular site (FIG. 1b, left). The averaged fluorescent signal of ROI was used instead of the total signal, because the total signal depends on the area of ROI, whereas the averaged signal reflects the density of signal. The ratio of ROI1/ROI2 could reflect the signal/noise ratio of the tested probe, and could also reflect the selectivity of the probe for BAT over WAT. For each dye, three ROI1/ROI2 ratios obtained with the three filter pairs were calculated. The mean of the ratios was used as the threshold. If the mean ratio was >1.10, the dye was selected as a potential positive hit (FIG. 1c). Since the contrast of a dye in the top-down screening is in the visible range, the visible contrast around the interscapular BAT area was also tested for the hits with the mean ratio of >1.10. If both mean ratio and the visible contrast were positive, then the hit was subjected to re-testing procedure to validate its reliability as described below.
Although CRANAD-2 and CRANAD-3 were able to provide certain contrast for BAT in vivo, their excitation and emission wavelengths were still shorter than required for an ideal NIR imaging probe (both excitation and emission >640 nm). […] To seek better probes, a sub-library was synthesized based on the structures of the lead probes CRANAD-2 and -3. CRANAD-6, -19, -22, -24, -26, -32 and -43 were synthesized and tested (images and chemical structures, excitation and emission spectra are shown in FIG. 9 a-e). […] However, the ROI1/ROI2 ratio of CRANAD-22 was not improved (FIG. 9c).

interscapular BAT [2] = test: Re-testing of hits with stepwise dissection and NIR imaging; type: in vivo, mice
Method: Like protein/cell-based screening, hit re-testing experiments were conducted to validate the reliability of this approach. CRANAD-2, -3, LDS 722 and Rhodamine 640 were subjected to re-testing by repeating the above imaging procedure. Images were acquired one hour after probe injection.
Next, stepwise dissection and imaging were performed to track the source of the fluorescence contrast at the interscapular site. Skin and the thin WAT layer that covers BAT were first removed, and then BAT was dissected, and NIR images were captured at each step. […] The signal contribution from BAT (R(BAT)) was roughly estimated using the ratio of fluorescence signals acquired after (F(BAT)) and before (F(intact)) the first step dissection of skin and WAT.

interscapular BAT [3] = test: Time course and dose optimization of probe signal in BAT area after i.v. injection; type: in vivo, mice; conditions: mouse, in vivo, iv
Method: (§2) Next the time course of CRANAD-2 and CRANAD-3 accumulation in BAT area was investigated. […] Similarly, the signal of CRANAD-3 reached the uptake peak around one hour, and then gradually washed out (FIG. 8c-d). Accumulation of CRANAD-2 and -3 in BAT was further confirmed with ex vivo histology of the dissected BAT slices, performed as follows. The dissected BAT was fixed with 4% formalin at 4° C. overnight, and then embedded into OCT. BAT tissue was cut into 7 micron thickness slices, washed with PBS buffer, and co-stained with DAPI (Vectra Shield, Vector Lab, Burlingame, Calif.). Images were acquired with fast exposure to capture the dye signal in the oil droplets. To outline cell membrane cell autofluorescence was captured with long exposure after image of the dye signal from oil droplets was already acquired. To further validate the capacity of CRANAD-29 for BAT labeling, ex vivo histological microscopic imaging with CRANAD-29 was conducted. […] Gold standard H&E staining also provided similar images (FIG. 10a). […] The injection dose of CRANAD-29 was optimized, and the fluorescence signal reached its plateau at 0.4 mg/kg (FIG. 11). In the following studies, 0.1 mg/kg dose was used.

brown adipose cells = test: Ex vivo histology of dissected BAT slices; set-up: species or system mice; conditions: fluorescence microscopy
Method: as §2

[4] = tested on: BAT cells induced from wild-type brown preadipocytes; test: In vitro staining of BMPs-induced BAT cells (live cell confocal); type: cell-based; conditions: live cell confocal images
[5] = Excitation and emission wavelengths of BAT imaging agents; type: physicochemical
Method: In some embodiments, the methods include irradiating the mammal with light of the appropriate wavelength to excite the BAT imaging agent, and detecting emissions therefrom.
Fluorescent dyes were purchased from Exciton Inc. (Dayton, Ohio) and Invitrogen. The reagents used for the synthesis were purchased from Aldrich and used without further purification. Column chromatography was performed on silica gel (SiliCycle Inc., 60 Å, […]) slurry packed into glass columns. 1H, 13C NMR spectra were recorded at 500 MHz and 125 MHz respectively, and reported in ppm downfield from tetramethylsilane. Fluorescence studies were carried out using a F-4500 Fluorescence Spectrophotometer (Hitachi). Mass spectra were obtained at Harvard University, Department of Chemistry Instrumentation Facility. Microscopic images were acquired with Nikon Eclipse 50i microscope. In vivo NIR imaging was performed using the IVIS® Spectrum animal imaging system (Caliper LifeSciences, Perkin Elmer, Hopkinton, Mass.), and data analysis was conducted using LivingImage® 4.2.1 software.

[6] = tested on: undifferentiated 3T3-L1 cells; test: Probe uptake in undifferentiated 3T3-L1 cells (IVIS imaging); type: cell-based
Method: (§3) To investigate the facilitated diffusion of CRANAD-2, the time courses of CRANAD-2 uptake in 3T3-L1 cells were compared before and after differentiation. Two-photon imaging for 3T3-L1 cells was performed as follows. Fibroblast 3T3-L1 cells were differentiated following the protocol provided by Zenbio, Inc. (protocol No. ZBM0009.02). Ten microliters of CRANAD-2 (250 μM in DMSO) was added to the differentiated cells (1.0 ml). Cells were imaged after 10 min of incubation. A 940 nm laser was first used to capture an image for CRANAD-2 in 570-620 nm channel (Prairie Two-photon microscope, Middleton, Wis.). Next, the laser was tuned to 750 nm to capture autofluorescence of the cells to outline cell morphology.
(§4) IVIS imaging of 3T3-L1 cells with CRANAD-2 was performed as follows. To a 6-well plate seeded with preadipocytes or differentiated adipocytes, a 10 μL solution of CRANAD-2 (250 μM in DMSO) was added. The plate was subjected to imaging using IVIS imaging system with Ex=605 nm, Em=660 nm before and after addition of CRANAD-2. For triglyceride competition, the same protocol for two-photon imaging was used. The images were acquired at 20 min after addition of CRANAD-2. Studies were performed in triplicate.
(§5) The uptake of CRANAD-29 in 3T3-L1 cells before and after differentiation was compared. IVIS imaging of 3T3-L1 cells with CRANAD-29 was performed as follows. To a 6-well plate seeded with preadipocytes or differentiated adipocytes, a 10 μL solution of CRANAD-29 (250 μM in DMSO) was added. The plate was subjected to imaging using IVIS imaging system with Ex=640 nm, Em=700 nm before and after addition of CRANAD-29. For triglyceride competition and Hexarelin inhibition, the similar protocol for CRANAD-2 imaging was used. The final concentration of hexarelin was 12.5 μM, and the images were acquired at 3 hours after addition of CRANAD-29 and triglyceride/Hexarelin. Studies were performed in triplicate.

[7] = tested on: differentiated 3T3-L1 cells; test: Probe uptake in differentiated 3T3-L1 cells (IVIS and two-photon imaging, competition); type: cell-based
Method: as §3
For triglyceride competition, stock solutions of CRANAD-2 (250 μM) and triglyceride (5 mM) in DMSO were prepared. Before imaging, 10 μl of the stock solution was added to the cells.
as §4, §5

| Structure (SMILES) | visible contrast around the interscapular BAT area (interscapular BAT [1]) | Ratio No 1 (ROI1/ROI2 average fluorescence intensity) (interscapular BAT [1]) | Ratio No 2 (ROI1/ROI2 average fluorescence intensity) (interscapular BAT [1]) | Ratio No 3 (ROI1/ROI2 average fluorescence intensity) (interscapular BAT [1]) | Ratio AVERAGE (mean ratio ROI1/ROI2) (interscapular BAT [1]) | selectivity for BAT (over WAT) (interscapular BAT [2]; stepwise dissection) | Emission λ [5] [nm] | Excitation λ [5] [nm] | further results |
| --- | --- | --- | --- | --- | --- | --- | --- | --- | --- |
| C[C@H](Cc1ccc2c(c1)OC(C(=O)[O-])(C(=O)[O-])O2)NC[C@H](O)c1cccc(Cl)c1.[Na+].[Na+] [CL 316,243] | – | – | – | – | – | – | – | – | H&E staining of sWAT slice of treated mice (inguinal sWAT): cells with multilocular lipid droplets; UCP-1 mRNA level in sWAT, treated mice vs control group (UCP-1): 7.9 fold |
| CCN(CC)c1ccc(/C=C/C2=CC(/C=C/c3ccc(N(CC)CC)nc3)=[O+][B-](F)(F)O2)cn1 [CRANAD-3] | best contrast and clear triangular contour | 1.34E+00 | 1.33E+00 | 1.31E+00 | 1.32 and 1.32E+00 | low | 660 | 570 | R(BAT), signal contribution from BAT, F(BAT)/F(intact) (interscapular BAT [2]; fluorescence after vs before dissection of skin and WAT, roughly estimated): 0.51; contrast among the re-tested dyes (interscapular BAT [2]; images one hour after probe injection): highest contrast; fluorescence signal from BAT (before vs after BAT removal) (interscapular BAT [2]; stepwise dissection): able to label BAT; time of uptake peak in BAT area (interscapular BAT [3]): around one; labeling in ex vivo histology of BAT slices (brown adipose cells): labeled oil droplets in brown adipose cells; staining of oil droplets in BAT cells [4]: able to clearly label oil droplets in BAT cells |
| CN(C)c1ccc(/C=C/C2=CC(/C=C/c3ccc(N(C)C)c4ccccc34)=[O+][B-](F)(F)O2)c2ccccc12 [CRANAD-6] | – | – | – | – | – | – | 750 | 620 | – |
| F[B-]1(F)OC(/C=C/c2c(-c3ccccc3)[nH]c3ccccc23)=CC(/C=C/c2c(-c3ccccc3)[nH]c3ccccc23)=[O+]1 [CRANAD-26] | – | – | – | – | – | – | 637 | 587 | – |
| CN(C)c1ccc(/C=C/C=C/C2=CC(/C=C/C=C/c3ccc(N(C)C)cc3)=[O+][B-](F)(F)O2)cc1 [CRANAD-43] | best contrast | – | – | – | – | not significantly increased; also recorded: poor selectivity | 700 | 640 | ROI1/ROI2 ratio compared with lead probe (interscapular BAT [1]; sub-library probes, compared with CRANAD-2): higher |
| CC[N+](CC)=c1ccc2nc3c(cc(N)c4ccccc43)oc-2c1 [Nile Blue] | – | 1.00E+00 | 9.89E−01 | 9.62E−01 | 9.84E−01 | – | – | – | uptake in undifferentiated cells over the time course [6]: rapidly reached the plateau; uptake in differentiated cells over the time course ([7]; differentiated 3T3-L1 cells): rapidly reached the plateau; uptake with triglyceride competition ([7]; triglyceride added with probe, two-photon microscopy and IVIS): no significant decrease in uptake |
